Measured values from patent US8435990B2, “Dihydropyrimidone amides as P2X7 modulators” (Roche Palo Alto LLC, priority 2009, dated 2013).

These molecules were tested against T1, human P2X7 (Homo sapiens, UniProt Q99572) (assay: P2X7 modulator pIC50 of Table 1 (assay not given; Intracellular Calcium Flux (FLIPR) Assay assumed)).
T1 construct: 1321N1 cells stably expressing the full length human P2X7 gene (1321N1-hP2X7)
T1 sequence (Q99572 1-595): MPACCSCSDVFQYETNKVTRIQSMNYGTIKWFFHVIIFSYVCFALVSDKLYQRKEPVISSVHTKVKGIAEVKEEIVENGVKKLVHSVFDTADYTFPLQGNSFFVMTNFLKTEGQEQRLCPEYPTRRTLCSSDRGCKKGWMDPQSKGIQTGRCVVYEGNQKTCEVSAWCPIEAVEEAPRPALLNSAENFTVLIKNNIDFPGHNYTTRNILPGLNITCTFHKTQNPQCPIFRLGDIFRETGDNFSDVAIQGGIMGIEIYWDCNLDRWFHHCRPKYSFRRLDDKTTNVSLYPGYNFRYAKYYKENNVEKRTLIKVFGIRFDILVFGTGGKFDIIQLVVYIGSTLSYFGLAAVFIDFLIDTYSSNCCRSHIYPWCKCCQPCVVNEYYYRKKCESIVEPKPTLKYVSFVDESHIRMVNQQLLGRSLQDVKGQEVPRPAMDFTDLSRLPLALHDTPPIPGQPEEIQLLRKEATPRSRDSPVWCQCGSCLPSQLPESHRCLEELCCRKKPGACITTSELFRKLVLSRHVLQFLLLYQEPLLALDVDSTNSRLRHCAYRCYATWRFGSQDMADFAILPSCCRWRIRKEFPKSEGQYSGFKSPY
Format: cell-based
Protocol: Intracellular Calcium Flux (FLIPR) Assay
Stock solutions of compounds were prepared from powders as a 10 mM DMSO stock solution. These solutions were stored at RT during the two week period of these experiments to prevent freeze-thaw of the DMSO stocks. The DMSO stocks were added to the appropriate assay buffer at a concentration of 10 μM, and then diluted serially to the final concentrations that were tested. No observable precipitate was formed at any time during this process. The aqueous solutions of compounds as well as ATP (Sigma A7699) and BzATP (Sigma B6396) were prepared fresh for each day of experiment.
1321N1 cells stably expressing the full length human P2X7 gene (1321N1-hP2X7) and HEK293 cells stably expressing the full length rat P2X7 gene (HEK293-rP2X7) were obtained from the Roche Cell Culture Facility. 1321N1-hP2X7 cells were grown in Dulbecco's Modified Eagle's Medium (DMEM) high glucose supplemented with 10% FBS and 250 μg/mL G418. HEK293-rP2X7 cells were grown in DMEM/F-12 supplemented with 10% FBS, 1 mM CaCl2, 2 mM MgCl2, 2 mM L-Glutamine and 500 μg/ml G418. Cells were split such that they never became >70% confluent.
On the day prior to the experiment, 1321N1-hP2X7 or HEK293-rP2X7 cells were released into suspension with calcium-free PBS+Versene and washed by centrifugation with calcium-free PBS to remove the Versene. Cells were resuspended in growth medium at a density of 2.5×10^5 cells/mL and seeded into black walled, clear bottom 96 well plates (50,000 cells/well) approximately 18 hr prior to intracellular calcium flux experiments.
On the day of the experiment, plates were washed with FLIPR buffer (calcium- and magnesium-free Hank's Balanced Salt Solution (HBSS) supplemented with 10 mM Hepes, 2.5 mM probenecid and 2 mM calcium chloride) using a BIO-TEK 96 channel plate washer and incubated with […] fluo-3 dye at 37° C. for one hr. The dye was then removed by plate washing and the cells were allowed to equilibrate for 20 min at room temperature with antagonist or vehicle (FLIPR buffer). Agonist (100 μM BzATP final concentration for hP2X7; 5μM BzATP final concentration or rP2X7) was added online with the FLIPR and fluorescence measurements made at 1 sec intervals for 60 sec followed by 3 sec intervals for a further 4 min (5 min total). A final addition of 5 μM ionomycin was made and the maximal BzATP-evoked fluorescence normalized to the maximal ionomycin-evoked fluorescence.
Work on `CN1C=C(C(=O)Nc2cccc3c(=O)n(CCO)ccc23)[C@H](c2ccc(F)cc2)NC1=O` [Compound 53, (S)-4-(4-Fluoro-phenyl)-1-methyl-2-oxo-1,2,3,4-tetrahydro-pyrimidine-5-carboxylic acid [2-(2-hydroxy-ethyl)-1-oxo-1,2-dihydro-isoquinolin-5-yl]-amide] yielded an IC50 of 53.1 nM.
`Cc1cc2cnn(CC(=O)N(C)C)c2cc1NC(=O)C1=CN(C)C(=O)N[C@H]1c1ccc(F)cc1` [Compound 58] was tested, and the IC50 was 40.3 nM.
`Cc1ccc2c(C)c(NC(=O)C3=CN(C)C(=O)N[C@H]3c3ccc(F)cc3)ccc2n1` [Compound 65, (S)-4-(4-Fluoro-phenyl)-1-methyl-2-oxo-1,2,3,4-tetrahydro-pyrimidine-5-carboxylic acid (2,5-dimethyl-quinolin-6-yl)-amide] was tested, and the IC50 was 15.5 nM.
Work on `Cc1ccc(-c2ccnn(C)c2=O)cc1NC(=O)C1=CN(C)C(=O)NC1C1CCC(F)(F)CC1` (stereo not drawn) [Compound 52, 4-(4,4-Difluoro-cyclohexyl)-1-methyl-2-oxo-1,2,3,4-tetrahydro-pyrimidine-5-carboxylic acid [2-methyl-5-(2-methyl-3-oxo-2,3-dihydro-pyridazin-4-yl)-phenyl]-amide] yielded an IC50 of 339 nM.
For `Cc1ccc(-c2nnc(C)n2C)cc1NC(=O)C1=CN(C)C(=O)N[C@H]1c1ccc(F)cc1` [Compound 18, (S)-4-(4-Fluoro-phenyl)-1-methyl-2-oxo-1,2,3,4-tetrahydro-pyrimidine-5-carboxylic acid [5-(4,5-dimethyl-4H-[1,2,4]triazol-3-yl)-2-methyl-phenyl]-amide], the IC50 was 22.1 nM.
In the case of `Cc1ccc2c(NC(=O)C3=CN(C)C(=O)N[C@H]3c3ccc(F)cc3)c(C)ccc2n1` [Compound 21, (S)-4-(4-Fluoro-phenyl)-1-methyl-2-oxo-1,2,3,4-tetrahydro-pyrimidine-5-carboxylic acid (2,6-dimethyl-quinolin-5-yl)-amide], the IC50 is reported as 88.1 nM.
Work on `CCc1c(NC(=O)C2=CN(C)C(=O)N[C@H]2c2ccc(F)cc2)ccc2nc(C)ccc12` [Compound 34, (S)-4-(4-Fluoro-phenyl)-1-methyl-2-oxo-1,2,3,4-tetrahydro-pyrimidine-5-carboxylic acid (5-ethyl-2-methyl-quinolin-6-yl)-amide] yielded an IC50 of 53.7 nM.
Molecule `COC[C@H](O)Cn1c(=O)cnn(-c2ccc(C)c(NC(=O)C3=CN(C)C(=O)N[C@H]3c3ccc(F)cc3)c2)c1=O` [Compound 25, (S)-4-(4-Fluoro-phenyl)-1-methyl-2-oxo-1,2,3,4-tetrahydro-pyrimidine-5-carboxylic acid {5-[4-((R)-2-hydroxy-3-methoxy-propyl)-3,5-dioxo-4,5-dihydro-3H-[1,2,4]triazin-2-yl]-2-methyl-phenyl}-amide] has an IC50 of 91.2 nM.
`Cc1ccc(-c2cc(C)n(C[C@@H](O)CO)n2)cc1NC(=O)C1=CN(C)C(=O)N[C@H]1c1ccc(F)cc1` [Compound 19, (S)-4-(4-Fluoro-phenyl)-1-methyl-2-oxo-1,2,3,4-tetrahydropyrimidine-5-carboxylic acid {5-[1-((R)-2,3-dihydroxy-propyl)-5-methyl-1H-pyrazol-3-yl]-2-methyl-phenyl}-amide] was tested, and the IC50 was 22.9 nM.
Molecule `Cc1cc2cn[nH]c2cc1NC(=O)C1=CN(C)C(=O)N[C@H]1c1ccc(F)cc1` [Compound 47, (S)-4-(4-Fluoro-phenyl)-1-methyl-2-oxo-1,2,3,4-tetrahydro-pyrimidine-5-carboxylic acid (5-methyl-1H-indazol-6-yl)-amide] has an IC50 of 18.2 nM.
`COC[C@H](O)Cn1nc(-c2ccc(C)c(NC(=O)C3=CN(C)C(=O)N[C@H]3c3ccc(F)cc3)c2)ccc1=O` [Compound 61, (S)-4-(4-Fluoro-phenyl)-1-methyl-2-oxo-1,2,3,4-tetrahydro-pyrimidine-5-carboxylic acid {5-[1-((R)-2-hydroxy-3-methoxy-propyl)-6-oxo-1,6-dihydro-pyridazin-3-yl]-2-methyl-phenyl}-amide] showed an IC50 of 40.7 nM.
With `Cc1cc(-c2ccc(C)c(NC(=O)C3=CN(C)C(=O)NC3c3cccc(F)c3)c2)n[nH]1` (stereo not drawn) [Compound 14, 4-(3-Fluoro-phenyl)-1-methyl-2-oxo-1,2,3,4-tetrahydro-pyrimidine-5-carboxylic acid [2-methyl-5-(5-methyl-1H-pyrazol-3-yl)-phenyl]-amide] the IC50 was 57.9 nM.
With `Cc1ccc(-n2ccc(=O)[nH]c2=O)cc1NC(=O)C1=CN(C)C(=O)N[C@H]1c1ccc(F)cc1` [Compound 48, (S)-4-(4-Fluoro-phenyl)-1-methyl-2-oxo-1,2,3,4-tetrahydro-pyrimidine-5-carboxylic acid [5-(2,4-dioxo-3,4-dihydro-2H-pyrimidin-1-yl)-2-methyl-phenyl]-amide] the IC50 was 26 nM.
With `COCCN1C=C(C(=O)Nc2cc(OCCO)c(Cl)cc2C)[C@H](c2ccc(F)cc2)NC1=O` [Compound 39, (S)-4-(4-Fluoro-phenyl)-1-(2-methoxy-ethyl)-2-oxo-1,2,3,4-tetrahydro-pyrimidine-5-carboxylic acid [4-chloro-5-(2-hydroxy-ethoxy)-2-methyl-phenyl]-amide] the IC50 was 43 nM.
With `COC[C@H](O)Cn1nccc(-c2ccc(C)c(NC(=O)C3=CN(C)C(=O)N[C@H]3c3ccc(F)cc3)c2)c1=O` [Compound 43, (S)-4-(4-Fluoro-phenyl)-1-methyl-2-oxo-1,2,3,4-tetrahydro-pyrimidine-5-carboxylic acid {5-[2-((R)-2-hydroxy-3-methoxy-propyl)-3-oxo-2,3-dihydro-pyridazin-4-yl]-2-methyl-phenyl}-amide] the IC50 was 29.9 nM.
Work on `Cc1cc(Cl)c(OCCO)cc1NC(=O)C1=CN(C)C(=O)N[C@H]1c1ccc(F)cc1` [Compound 8, (S)-4-(4-Fluoro-phenyl)-1-methyl-2-oxo-1,2,3,4-tetrahydro-pyrimidine-5-carboxylic acid [4-chloro-5-(2-hydroxy-ethoxy)-2-methyl-phenyl]-amide] yielded an IC50 of 22.9 nM.
`Cc1ccc(-n2c(=O)cc[nH]c2=O)cc1NC(=O)C1=CN(C)C(=O)N[C@H]1c1ccc(F)cc1` [Compound 56, (S)-4-(4-Fluoro-phenyl)-1-methyl-2-oxo-1,2,3,4-tetrahydro-pyrimidine-5-carboxylic acid [5-(2,6-dioxo-3,6-dihydro-2H-pyrimidin-1-yl)-2-methyl-phenyl]-amide] showed an IC50 of 3160 nM.
For `Cc1ccc(-n2ccc(=O)n(C)c2=O)cc1NC(=O)C1=CN(C)C(=O)N[C@H]1c1ccc(F)cc1` [Compound 68, (S)-4-(4-Fluoro-phenyl)-1-methyl-2-oxo-1,2,3,4-tetrahydro-pyrimidine-5-carboxylic acid [2-methyl-5-(3-methyl-2,4-dioxo-3,4-dihydro-2H-pyrimidin-1-yl)-phenyl]-amide], the IC50 was 37.6 nM.
Work on `Cc1cc(-c2ccc(C)c(NC(=O)C3=CN(C)C(=O)N[C@H]3c3ccc(F)cc3)c2)n[nH]1` [Compound 7, (S)-4-(4-Fluoro-phenyl)-1-methyl-2-oxo-1,2,3,4-tetrahydro-pyrimidine-5-carboxylic acid [2-methyl-5-(5-methyl-1H-pyrazol-3-yl)-phenyl]-amide] yielded an IC50 of 35.1 nM.
In the case of `Cc1cnn(-c2cc(NC(=O)C3=CN(C)C(=O)N[C@H]3c3ccc(F)cc3)c(C)cc2F)c(=O)c1` [Compound 73, (S)-4-(4-Fluoro-phenyl)-1-methyl-2-oxo-1,2,3,4-tetrahydro-pyrimidine-5-carboxylic acid [4-fluoro-2-methyl-5-(4-methyl-6-oxo-6H-pyridazin-1-yl)-phenyl]-amide], the IC50 is reported as 56.9 nM.
`Cc1ccc(-c2ccc(=O)n(C)n2)cc1NC(=O)C1=CN(C)C(=O)N[C@H]1c1ccc(F)cc1` [Compound 40, (S)-4-(4-Fluoro-phenyl)-1-methyl-2-oxo-1,2,3,4-tetrahydro-pyrimidine-5-carboxylic acid [2-methyl-5-(1-methyl-6-oxo-1,6-dihydro-pyridazin-3-yl)-phenyl]-amide] showed an IC50 of 72.4 nM.
